The term IC50 denotes the concentration that inhibits the measured activity by half.

These results are taken from BindingDB's records for doi:10.1016/j.chembiol.2005.11.011 (Cyclacel, 2006).

Each structure is given as a SMILES string.

In the experiment the target is Cyclin-dependent kinase 2 (Homo sapiens, UniProt P24941). Kind of experiment: In Vitro Inhibition. From the text: In vitro inhibition assay using human recombinant CDK2 and human recombinant cyclin A2.

Regarding `O=[N+]([O-])c1cccc(Nc2nccc(-c3cccc(Cn4cncn4)c3)n2)c1` [N-(3-nitrophenyl)-4-[3-(1H-1,2,4-triazol-1-ylmethyl)phenyl]pyrimidin-2-amine, 6], it took 250 nM to reach half-maximal inhibition (IC50).
